The values below come from paper PMC10004559, “Identification of residues involved in allosteric signal transmission from amino acid binding site of pyruvate kinase muscle isoform 2” (PLOS ONE, 2023).

Where “and” joins values, the source holds several entries; their conditions need not be identical. Equal values may be shown once. Read-outs that look alike come from different tables or passages of the source.

Test [1] has as its target T1, PKM2 R106A (Homo sapiens, UniProt P14618, R106A).
T1 construct: made in house; host or cells: E. coli BL21(DE3) pLysS
The experiment in a line: PKM2-LDH coupled pyruvate kinase activity assay. The conditions noted are these: for Vmax / kcat: 50 nM PKM2 R106A in presence of 2 mM of the labelled AA (Val 10 mM), PEP 0.025–8 mM, ADP 0.8 mM, Cys data fitted with allosteric sigmoidal equation; for decrease of catalytic efficiency of PKM2 R106A: in the presence of Val (10 mM) and Cys (2 mM), versus no AA. The format is biochemical.
Description: (§3) The decrease in absorbance at 340 nm was recorded for a minute to monitor the progress of the reactions.

Test [2] deals with T2, PKM2 N70D (Homo sapiens, UniProt P14618, N70D). Nature of the test: Gel-filtration study of oligomeric state. Also noted: made in house; host or cells: E. coli BL21(DE3) pLysS. The conditions noted are these: 0.1 mg/ml PKM2 N70D, 10 mM AA. As to the method:
(§1) The flow rate was kept constant at 0.5 ml/min using an AKTA Pure FPLC system (GE Healthcare Life Sciences, Marlborough, MA). All AA concentrations used in the experiments were fixed at 10 mM. Column calibration was conducted using gel-filtration molecular weight standards (Bio-Rad) containing bovine thyroglobulin (670 kDa), bovine γ-globulin (158 kDa), chicken ovalbumin (44 kDa), horse myoglobin (17 kDa), and vitamin B12 (1.35 kDa). The eluted protein peak was observed using UV absorbance at 280 nm. To normalize the lowest and highest intensity value, they were set to 0% and 100%, respectively, which was plotted against elution volume in GraphPad Prism (San Diego, CA).

For test [3], the target named is T2, PKM2 N70D. The experiment in a line: PKM2-LDH coupled pyruvate kinase activity assay. The settings on record: 65 nM PKM2 N70D in presence of 2 mM of the labelled AA; PEP 0.025–8 mM, ADP 0.8 mM.
Description: as §3
Test [4] deals with T3, wtPKM2 (Homo sapiens, UniProt P14618).
T3 construct: made in house; host or cells: E. coli BL21(DE3) pLysS
T3 sequence (P14618 whole entry): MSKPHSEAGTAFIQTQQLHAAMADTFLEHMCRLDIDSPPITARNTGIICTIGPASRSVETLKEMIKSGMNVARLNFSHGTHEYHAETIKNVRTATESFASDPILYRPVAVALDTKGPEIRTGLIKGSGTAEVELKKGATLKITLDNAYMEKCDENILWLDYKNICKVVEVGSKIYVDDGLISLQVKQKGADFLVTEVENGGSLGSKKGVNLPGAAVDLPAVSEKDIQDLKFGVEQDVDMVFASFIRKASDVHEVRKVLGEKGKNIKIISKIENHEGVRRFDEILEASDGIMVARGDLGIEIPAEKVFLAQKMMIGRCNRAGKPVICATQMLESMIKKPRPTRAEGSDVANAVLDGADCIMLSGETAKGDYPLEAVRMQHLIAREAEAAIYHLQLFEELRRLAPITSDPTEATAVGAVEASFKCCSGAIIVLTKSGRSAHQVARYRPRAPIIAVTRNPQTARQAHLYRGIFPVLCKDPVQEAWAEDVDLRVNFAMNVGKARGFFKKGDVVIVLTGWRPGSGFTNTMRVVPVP
Nature of the test: PKM2-LDH coupled pyruvate kinase activity assay. The settings on record: ADP 0.8 mM; for Vmax / kcat: 10 nM wtPKM2 in presence of 2 mM of the labelled AA, PEP varied. The format is biochemical.
Description: as §3

Test [5] has as its target T4, PKM2 N75L (Homo sapiens, UniProt P14618, N75L).
T4 construct: made in house; host or cells: E. coli BL21(DE3) pLysS
Nature of the test: PKM2-LDH coupled pyruvate kinase activity assay. In kind it is biochemical. The conditions noted are these: 4200 nM PKM2 N75L in presence of 2 mM of the labelled AA; PEP 0.025–8 mM, ADP 0.8 mM.
Description: as §3

Test [6] concerns the target T1, PKM2 R106A. Nature of the test: Ligand binding assay, intrinsic tryptophan fluorescence quenching. The conditions noted are these: for decrease of affinity for the AA relative to wtPKM2: PKM2 R106A versus wtPKM2; for weakening of ADP binding affinity versus absence of any AAs: PKM2 R106A in the presence of the labelled AA. As for the experimental part: (§2) All ligand binding studies were conducted in a buffer containing 1.6 μM enzyme dissolved in 20 mM Tris-HCl (pH 7.5) and 150 mM KCl. […] The decrease of intrinsic tryptophan fluorescence with increasing substrate concentration was measured using a Cary Eclipse Fluorescence Spectrophotometer (Agilent Technologies, Santa Clara, CA). To determine the binding affinity of wtPKM2 and the variants for the AAs mentioned previously, the enzymes were dissolved in the buffer followed by monitoring fluorescence quenching as the AA concentration was increased. The wavelength used to excite PKM2 was set at 295 nm, while the emission wavelength was 340 nm with slit widths of 5 and 10 nm, respectively. The fluorescence intensity values were used to calculate fractional saturation, which was fitted to the one-site specific binding Eq (3), or the Hill Eq (4) using GraphPad Prism (San Diego, CA), Y=Bmax×X/Kd+X (3) Y=Bmax×x^h/Kdh+x^h (4) where Bmax is maximum binding, Y is fractional saturation, h is the Hill coefficient, Kd is dissociation constant, and X is ligand concentration.

Test [7] addresses T1, PKM2 R106A. Nature of the test: Gel-filtration study of oligomeric state. The settings on record: 0.1 mg/ml PKM2 R106A, 10 mM AA. As to the method: as §1
Test [8] deals with T3, wtPKM2. Nature of the test: Gel-filtration study of oligomeric state. The conditions noted are these: 0.1 mg/ml wtPKM2, 10 mM AA. As to the method:
as §1

Test [9] deals with T4, PKM2 N75L. Nature of the test: Gel-filtration study of oligomeric state. The conditions noted are these: 0.1 mg/ml PKM2 N75L, 10 mM AA. As to the method:
as §1

The target in test [10] is T3, wtPKM2. Also noted: method as in PMID 32144209. The conditions noted are these: wtPKM2 in the presence of Val; cited from earlier work.
The target in test [11] is T3, wtPKM2. The settings on record: cited from earlier work.
For test [12], the target named is T4, PKM2 N75L. Nature of the test: Ligand binding assay, intrinsic tryptophan fluorescence quenching. The conditions noted are these: 1.6 μM PKM2 N75L, no AA ligand; read-out: Kd, ADP as titrant. As to the method:
The decrease of intrinsic tryptophan fluorescence with increasing substrate concentration was measured using a Cary Eclipse Fluorescence Spectrophotometer (Agilent Technologies, Santa Clara, CA). To determine the binding affinity of wtPKM2 and the variants for the AAs mentioned previously, the enzymes were dissolved in the buffer followed by monitoring fluorescence quenching as the AA concentration was increased. The wavelength used to excite PKM2 was set at 295 nm, while the emission wavelength was 340 nm with slit widths of 5 and 10 nm, respectively. The fluorescence intensity values were used to calculate fractional saturation, which was fitted to the one-site specific binding Eq (3), or the Hill Eq (4) using GraphPad Prism (San Diego, CA), Y=Bmax×X/Kd+X (3) Y=Bmax×x^h/Kdh+x^h (4) where Bmax is maximum binding, Y is fractional saturation, h is the Hill coefficient, Kd is dissociation constant, and X is ligand concentration.

For test [13], the target named is T2, PKM2 N70D. The description is as above. Also noted: made in house; host or cells: E. coli BL21(DE3) pLysS. The conditions noted are these: no AA ligand, read-out: Kd, ADP as titrant. As for the experimental part:
as §2

[14] abbreviates: 2 mM AA, 10 nM enzyme, PEP 0.15–8 mM, versus no AA.
The mark [15] stands for this setting: 1.6 μM PKM2 R106A, read-out: Kd for the AA (AA as titrant).

T2 sequence (P14618 whole entry N70D): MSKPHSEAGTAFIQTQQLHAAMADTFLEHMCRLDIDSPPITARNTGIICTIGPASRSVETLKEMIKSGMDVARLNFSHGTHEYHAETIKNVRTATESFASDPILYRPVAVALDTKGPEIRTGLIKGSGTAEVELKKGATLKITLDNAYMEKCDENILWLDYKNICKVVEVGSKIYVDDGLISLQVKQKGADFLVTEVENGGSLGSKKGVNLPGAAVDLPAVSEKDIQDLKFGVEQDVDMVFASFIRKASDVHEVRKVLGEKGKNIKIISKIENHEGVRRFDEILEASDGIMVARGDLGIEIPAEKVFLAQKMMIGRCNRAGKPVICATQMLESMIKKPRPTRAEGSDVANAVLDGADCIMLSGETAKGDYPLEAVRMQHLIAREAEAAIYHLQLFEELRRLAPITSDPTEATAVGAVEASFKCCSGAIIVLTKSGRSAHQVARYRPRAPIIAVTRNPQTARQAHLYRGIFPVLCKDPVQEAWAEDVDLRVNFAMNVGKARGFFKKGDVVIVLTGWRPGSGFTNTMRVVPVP
T1 sequence (P14618 whole entry R106A): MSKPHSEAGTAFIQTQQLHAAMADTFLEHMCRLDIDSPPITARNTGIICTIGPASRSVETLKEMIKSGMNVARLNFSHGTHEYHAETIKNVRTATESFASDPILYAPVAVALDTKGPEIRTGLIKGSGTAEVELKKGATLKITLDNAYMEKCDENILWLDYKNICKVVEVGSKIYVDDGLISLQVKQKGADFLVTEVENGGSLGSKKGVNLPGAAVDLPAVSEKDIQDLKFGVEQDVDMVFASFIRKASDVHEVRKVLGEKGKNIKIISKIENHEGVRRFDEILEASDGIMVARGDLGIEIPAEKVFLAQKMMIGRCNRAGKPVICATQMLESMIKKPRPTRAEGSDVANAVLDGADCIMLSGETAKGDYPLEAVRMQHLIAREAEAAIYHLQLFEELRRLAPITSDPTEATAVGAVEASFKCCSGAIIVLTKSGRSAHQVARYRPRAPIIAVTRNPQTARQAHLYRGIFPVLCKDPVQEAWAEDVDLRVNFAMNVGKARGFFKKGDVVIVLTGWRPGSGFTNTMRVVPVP
T4 sequence (P14618 whole entry N75L): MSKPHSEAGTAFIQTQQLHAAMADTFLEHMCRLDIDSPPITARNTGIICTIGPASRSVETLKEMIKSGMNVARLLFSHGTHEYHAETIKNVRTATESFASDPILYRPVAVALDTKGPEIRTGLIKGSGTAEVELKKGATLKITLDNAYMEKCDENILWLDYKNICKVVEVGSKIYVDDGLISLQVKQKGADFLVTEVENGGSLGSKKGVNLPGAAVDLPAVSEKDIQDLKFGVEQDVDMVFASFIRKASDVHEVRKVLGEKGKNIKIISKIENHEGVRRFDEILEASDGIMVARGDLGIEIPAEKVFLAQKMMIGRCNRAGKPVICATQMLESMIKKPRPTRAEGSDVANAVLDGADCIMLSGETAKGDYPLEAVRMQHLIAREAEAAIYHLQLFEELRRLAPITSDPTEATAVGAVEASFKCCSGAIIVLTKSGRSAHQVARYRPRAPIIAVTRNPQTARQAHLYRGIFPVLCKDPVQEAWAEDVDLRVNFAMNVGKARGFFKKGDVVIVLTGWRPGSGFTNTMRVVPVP

The Vmax is the rate approached at saturating substrate. The Kd is the free concentration of one partner at which half of the binding sites on the other are occupied at equilibrium, for simple one-to-one binding. Consider `NC(=O)C[C@H](N)C(=O)O` [Asn, asparagine], for which the Vmax in [1] worked out at 318 ± 8 µM/min; in [3], 340 ± 8 µM/min; in [4] it was 113 ± 4 µM/min; in test [5] it was 50 ± 2 µM/min. For the same compound, the kcat in test [1] is 6.3±0.2 ×10^3 min^-1; in [3], 5.2±0.3 ×10^3 min^-1; in test [4] it was 11.3±0.4 ×10^3 min^-1; in test [5], 0.012±0.0 ×10^3 min^-1. In addition, the oligomeric state change entry in test [2] is “dimer/monomer fraction decreased”. Further, in test [4] (setting [14]), the “increase of kcat/Km of wtPKM2” value is ~ 8 fold. Besides, the “decrease of affinity for the AA relative to wtPKM2” value in [6] is on record as 2–4 fold. Also, the Kd in test [6] ([…] PKM2 R106A, read-out: Kd for the AA (AA as titrant)) came out at 42 ± 10 µM.
`N[C@@H](CS)C(=O)O` [Cys, cysteine]: the maximum rate (Vmax) in test [1] was determined as 291 ± 9 µM/min; in [3], 334 ± 15 µM/min; in test [4] it was 65 ± 7 µM/min; in test [5], 33 ± 3 µM/min. Further, the kcat is recorded as 5.8±0.2 ×10^3 min^-1 in test [1], 5.1±0.2 ×10^3 min^-1 in test [3], 6.5±0.7 ×10^3 min^-1 in test [4] and 0.008±0.0 ×10^3 min^-1 in test [5]. The “decrease of catalytic efficiency of PKM2 R106A” value in test [1] is recorded as 2–7 fold. Moreover, the oligomeric state change result in test [7] was “resulted in a mixture of tetramer and dimer/monomer equilibrium”; in test [8], “shift from an active tetramer to a mixture of tetramer and dimer/monomer equilibrium”; in [9], “the dimer/monomer fraction increased”; in test [2] it was “did not change the oligomeric state”. The “decrease of kcat/Km of wtPKM2” value in test [4] (setting [14]) is ~ 4 fold. Besides, the dissociation constant Kd in test [6] (setting [15]) stood at 36 µM. Also, the “weakening of ADP binding affinity versus absence of any AAs” value in [6] is recorded as ~ 10 fold. Also, the “decrease of affinity for the AA relative to wtPKM2” value in test [6] was 2–4 fold.
`N[C@@H](CC(=O)O)C(=O)O` [Asp, aspartate]: the Vmax in [1] is 295 ± 6 µM/min; in [3], 307 ± 10 µM/min; in [4], 104 ± 2 µM/min; in test [5], 51 ± 3 µM/min. Besides, the kcat was 5.9±0.1 ×10^3 min^-1 in test [1], 4.7±0.1 ×10^3 min^-1 in test [3], 10.4±0.2 ×10^3 min^-1 in test [4] and 0.012±0.0 ×10^3 min^-1 in test [5]. The oligomeric state change entry in [2] is recorded as “dimer/monomer fraction decreased”. In addition, in test [6] (setting [15]), the Kd is about 70 µM.
Turning to `CC(C)[C@H](N)C(=O)O` [Val, valine], the maximum rate (Vmax) in [1] is 346 ± 12 µM/min; in test [3] it was 324 ± 37 µM/min; in test [4], 74 ± 5 µM/min; in [5], 34 ± 2 µM/min. For the same compound, the kcat in test [1] was 6.9±0.2 ×10^3 min^-1; in test [3] it was 4.9±0.6 ×10^3 min^-1; in [4], 7.4±0.5 ×10^3 min^-1; in test [5], 0.008±0.0 ×10^3 min^-1. In addition, the “decrease of catalytic efficiency of PKM2 R106A” value in test [1] is recorded as 2–7 fold. Moreover, the oligomeric state change entry in test [7] was “resulted in a mixture of tetramer and dimer/monomer equilibrium”; in [9], “the dimer/monomer fraction increased”; in test [10] it was “shift from an active tetramer to a mixture of tetramer and dimer/monomer equilibrium”; in [2] it was “did not change the oligomeric state”. Further, the “decrease of kcat/Km of wtPKM2” value in test [4] (setting [14]) is on record as ~ 4 fold. Besides, the Kd in test [6] (setting [15]) is about 1600 µM. Moreover, the “weakening of ADP binding affinity versus absence of any AAs” value in [6] is given as ~ 10 fold. Moreover, the “decrease of affinity for the AA relative to wtPKM2” value in test [6] is 2–4 fold.
With `C=C(OP(=O)(O)O)C(=O)O` [PEP, phosphoenolpyruvate], the dissociation constant Kd in test [11] (read-out: Kd, PEP as titrant, […] wtPKM2, no AA ligand, marked (2) in S2 Table) was 10 ± 2 µM.
With `O=C(COP(=O)(O)O)[C@@H](O)[C@H](O)[C@H](O)COP(=O)(O)O` [FBP, fructose-1,6-bisphosphate], in [11] (wtPKM2, read-out: Kd for FBP), the dissociation constant Kd is 0.00098 µM and 0.001 µM.
Turning to `Nc1ncnc2c1ncn2[C@@H]1O[C@H](COP(=O)(O)OP(=O)(O)O)[C@@H](O)[C@H]1O` [ADP, adenosine diphosphate], the dissociation constant (Kd) in test [12] is 449 ± 48 µM; in test [11] ([…] wtPKM2, no AA ligand, marked (2) in S2 Table, read-out: Kd, ADP as titrant) it was 237 ± 54 µM; in test [13], 644 ± 154 µM; in test [6] (1.6 μM PKM2 R106A, no AA ligand, read-out: Kd, ADP as titrant), 257 ± 24 µM.
